Values joined by “and” are separate entries in the source; they are usually repeats but may differ in a detail not shown here. Identical values can stand only once.
Legend:
D(3) dopamine receptor = D(3) dopamine receptor (Rattus norvegicus, UniProt P19020)
D(4) dopamine receptor = target: T1, D(4) dopamine receptor (Rattus norvegicus, UniProt P30729)
T1 sequence (P30729 whole entry): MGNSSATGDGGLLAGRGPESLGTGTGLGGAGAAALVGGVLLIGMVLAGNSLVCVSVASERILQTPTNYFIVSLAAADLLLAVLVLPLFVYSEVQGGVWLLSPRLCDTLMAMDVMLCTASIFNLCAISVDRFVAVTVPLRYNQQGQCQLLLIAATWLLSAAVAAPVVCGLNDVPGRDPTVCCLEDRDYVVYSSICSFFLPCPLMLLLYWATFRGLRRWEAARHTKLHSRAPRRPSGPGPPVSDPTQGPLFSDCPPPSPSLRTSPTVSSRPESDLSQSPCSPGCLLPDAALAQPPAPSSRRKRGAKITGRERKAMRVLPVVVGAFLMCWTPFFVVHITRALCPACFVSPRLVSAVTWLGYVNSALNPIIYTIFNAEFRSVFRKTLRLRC

[1] = target: 5-hydroxytryptamine receptor 7 (Rattus norvegicus, UniProt P32305)
D(1A) dopamine receptor = D(1A) dopamine receptor (Rattus norvegicus, UniProt P18901)
D(1B) dopamine receptor = D(1B) dopamine receptor (Rattus norvegicus, UniProt P25115)
[2] = target: 5-hydroxytryptamine receptor 6 (Rattus norvegicus, UniProt P31388)
Chain of 5-hydroxytryptamine receptor 6 (P31388 whole entry): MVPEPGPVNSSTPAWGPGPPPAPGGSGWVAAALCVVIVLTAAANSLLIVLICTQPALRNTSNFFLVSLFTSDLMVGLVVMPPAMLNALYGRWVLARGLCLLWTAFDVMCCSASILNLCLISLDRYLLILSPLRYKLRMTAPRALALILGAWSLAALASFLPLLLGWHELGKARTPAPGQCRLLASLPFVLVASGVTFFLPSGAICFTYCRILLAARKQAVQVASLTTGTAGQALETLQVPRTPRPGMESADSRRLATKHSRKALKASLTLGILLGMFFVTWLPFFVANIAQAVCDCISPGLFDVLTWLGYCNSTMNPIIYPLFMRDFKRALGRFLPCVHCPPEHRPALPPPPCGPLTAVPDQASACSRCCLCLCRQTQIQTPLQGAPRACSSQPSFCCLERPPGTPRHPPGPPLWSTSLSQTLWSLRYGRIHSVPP

Chain of D(3) dopamine receptor (P19020 whole entry): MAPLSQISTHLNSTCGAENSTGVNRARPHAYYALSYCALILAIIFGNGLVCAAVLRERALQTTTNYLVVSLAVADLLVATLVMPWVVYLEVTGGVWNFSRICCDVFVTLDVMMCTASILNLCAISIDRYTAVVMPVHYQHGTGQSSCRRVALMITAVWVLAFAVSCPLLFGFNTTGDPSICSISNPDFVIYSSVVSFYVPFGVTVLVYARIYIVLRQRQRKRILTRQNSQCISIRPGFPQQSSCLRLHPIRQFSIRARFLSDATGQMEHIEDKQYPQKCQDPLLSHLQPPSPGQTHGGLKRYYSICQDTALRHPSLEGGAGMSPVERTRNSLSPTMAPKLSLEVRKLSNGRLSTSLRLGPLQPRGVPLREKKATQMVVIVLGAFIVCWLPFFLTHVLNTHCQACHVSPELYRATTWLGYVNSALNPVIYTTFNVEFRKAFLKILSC
Chain of 5-hydroxytryptamine receptor 7 (P32305 whole entry): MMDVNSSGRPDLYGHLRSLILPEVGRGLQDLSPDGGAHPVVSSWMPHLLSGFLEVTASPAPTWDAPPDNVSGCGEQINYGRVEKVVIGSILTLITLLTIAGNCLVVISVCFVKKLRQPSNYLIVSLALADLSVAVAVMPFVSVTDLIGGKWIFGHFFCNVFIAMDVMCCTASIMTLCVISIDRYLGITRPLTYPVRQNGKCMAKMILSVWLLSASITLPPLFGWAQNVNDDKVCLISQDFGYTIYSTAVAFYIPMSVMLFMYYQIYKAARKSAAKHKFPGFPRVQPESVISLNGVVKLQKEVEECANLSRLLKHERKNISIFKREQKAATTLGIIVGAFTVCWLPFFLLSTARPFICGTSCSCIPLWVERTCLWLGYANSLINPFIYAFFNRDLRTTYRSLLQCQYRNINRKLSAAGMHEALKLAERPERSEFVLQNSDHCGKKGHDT
Chain of D(1A) dopamine receptor (P18901 whole entry): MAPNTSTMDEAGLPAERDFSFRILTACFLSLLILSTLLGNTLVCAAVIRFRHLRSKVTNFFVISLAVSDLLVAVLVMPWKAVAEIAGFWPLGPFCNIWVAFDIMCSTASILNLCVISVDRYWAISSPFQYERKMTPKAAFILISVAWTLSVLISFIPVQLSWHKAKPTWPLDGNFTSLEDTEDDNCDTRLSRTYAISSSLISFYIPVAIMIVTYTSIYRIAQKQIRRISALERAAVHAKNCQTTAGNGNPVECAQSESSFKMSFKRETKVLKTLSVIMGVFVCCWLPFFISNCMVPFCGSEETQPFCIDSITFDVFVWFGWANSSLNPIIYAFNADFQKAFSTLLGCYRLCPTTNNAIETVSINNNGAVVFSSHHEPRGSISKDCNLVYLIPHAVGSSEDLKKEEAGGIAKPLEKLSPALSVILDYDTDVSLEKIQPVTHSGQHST
Chain of D(1B) dopamine receptor (P25115 whole entry): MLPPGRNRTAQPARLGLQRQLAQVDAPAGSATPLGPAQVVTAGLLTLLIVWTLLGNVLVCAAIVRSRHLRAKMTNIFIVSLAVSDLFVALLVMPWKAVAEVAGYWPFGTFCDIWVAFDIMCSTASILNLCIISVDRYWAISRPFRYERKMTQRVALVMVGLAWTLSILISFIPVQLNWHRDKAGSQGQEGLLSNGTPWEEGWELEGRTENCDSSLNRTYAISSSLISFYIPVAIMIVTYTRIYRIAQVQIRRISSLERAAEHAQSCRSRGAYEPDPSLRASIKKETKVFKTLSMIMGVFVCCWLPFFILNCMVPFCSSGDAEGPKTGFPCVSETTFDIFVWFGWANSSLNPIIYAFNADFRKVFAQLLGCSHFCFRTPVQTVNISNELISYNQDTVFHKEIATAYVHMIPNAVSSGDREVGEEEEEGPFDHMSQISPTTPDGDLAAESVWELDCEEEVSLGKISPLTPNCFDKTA

Ki (D(3) dopamine receptor)	Ki (D(4) dopamine receptor) [nM]	SMILES	Ki [1] [nM]	Ki (D(1A) dopamine receptor) [nM]	Ki (D(1B) dopamine receptor) [µM]	Ki [2] [nM]
0.36 nM and 0.14 nM	64	CCc1cc(Cl)c(OC)c(C(=O)NC[C@@H]2CCCN2CC)c1O [3-Chloro-5-ethyl-N-((S)-1-ethyl-pyrrolidin-2-ylmethyl)-6-hydroxy-2-methoxy-benzamide]	–	–	–	–
18 nM and 81.7 nM	280	Cc1cccc(N2CCN(CCCOc3ccc4ccc(=O)[nH]c4c3)CC2)c1C [NSC_163839]	22	> 10000	> 10	680
–	–	O=C1CCc2ccc(OCCCCN3CCN(c4cccc(Cl)c4Cl)CC3)cc2N1 [7-{4-[4-(2,3-dichlorophenyl)piperazin-1-yl]butoxy}-3,4-dihydroquinolin-2(1H)-one]	–	–	–	161

SMILES	Ki (D(3) dopamine receptor)	Ki (D(4) dopamine receptor) [nM]	Ki [1] [nM]	Ki (D(1A) dopamine receptor) [nM]	Ki (D(1B) dopamine receptor) [µM]	Ki [2] [nM]
Cc1c(O)ccc(N2CCN(CCCCOc3ccc4c(c3)NC(=O)CC4)CC2)c1C [7-{4-[4-(4-hydroxy-2,3-dimethylphenyl)piperazin-1-yl]butoxy}-1,2,3,4-tetrahydroquinolin-2-one]	4.5 nM and 1.63 nM	120	220	460	> 10	–

— BindingDB's records for doi:10.1016/S0893-133X(98)00099-2 (University of North Carolina, 1999)
